Results on 15 molecules are retold here after EPA's ToxValDB 9.5.

The subject of series [1] is Rattus norvegicus. Conditions: repeat dose other; oral.
Another series concerns Anas platyrhynchos. Conditions: oral.
Series [2] has as its system Rattus norvegicus. Conditions: oral; for NOAEL: M/F.
Series [3] concerns Rattus norvegicus.
Series [4] concerns Mus musculus. Conditions: acute; oral.
The test system of series [5] is Mus musculus. Conditions: oral.
Series [6] relates to Mus musculus. Conditions: reproduction developmental, oral, gavage, M, NMRI, generation: P0.
The subject of series [7] is Mus musculus. Conditions: repeat dose other; oral.
Series [8] deals with Rattus norvegicus. Conditions: oral, gavage.
Series [9] concerns Mus musculus. Conditions: oral, drinking water, B6C3F1, immunological.
Series [10] concerns Rattus norvegicus. Conditions: oral.
In series [11] the test system is Rattus norvegicus. Conditions: oral, M/F.
For series [12], the system named is Rattus norvegicus. Conditions: short-term; duration: 20 days; oral; drinking water; Bone: Rachitic changes.
In series [13] the test system is Rattus norvegicus. The source holds these as a separate data set.
In a further series the test system is Neovison sp. Conditions: repeat dose other; oral; Mink.
Setting [14] is: developmental, gavage, M, neurobehavioral effects.
Where [15] appears, read: subchronic, lesions in liver, kidney and thyroid.
Where [16] appears, read: duration: 2 years, feed, M/F, Crl:CD(SD), reduced weight gain.
Where [17] appears, read: short-term, duration: 20 days, rachitic bone.
[18] abbreviates: short-term, duration: 28 days, M, Sprague-Dawley, Clinical Observation: Locomotor activity decrease, Salivation + Functional Observational Battery: Locomotor activity decrease, Salivation + ….
Where [19] appears, read: subchronic, duration: 90 days, reduced body weight and neurotoxicity.

In the series on Rattus norvegicus [1], `[Cl][Cd][Cl]` [Cadmium chloride] yielded an LOAEL of 10 mg/kg-day and a no observed adverse effect level (NOAEL) of 1 mg/kg-day. Also, in the series with Anas platyrhynchos, the lowest observed adverse effect level (LOAEL) was 20 mg/kg-day and the no observed adverse effect level (NOAEL) stood at 1.45 mg/kg-day.

On to `O=C(O)CCCCC(=O)O` [Hexanedioic acid], for which the NOAEL is 470 mg/kg-day in the series on Rattus norvegicus [2] (chronic, duration: 2 years, diet, albino, Whole Body Effects); greater than 288 mg/kg-day with Rattus norvegicus [3] (developmental, duration: 10 days, oral, gavage, Wistar); greater than 250 mg/kg-day in the series on Oryctolagus sp. (developmental, duration: 13 days, oral, gavage, Dutch-belted). The same molecule registered an LC50 with Rattus norvegicus [3] (acute, Inhalation, Sprague-Dawley) greater than 7.7 µg/mL. In addition, the LD50 was 5050 mg/kg in the series on Rattus norvegicus [3] (acute, oral, Sprague-Dawley); greater than 7940 mg/kg in the series on Oryctolagus sp. (acute, dermal, occlusive, New Zealand); 1900 mg/kg with Mus musculus [4].

Consider `O=S(=O)(O)c1ccc(Cl)cc1` [4-Chlorobenzenesulphonic acid], for which, in the series with Rattus norvegicus [2] (subchronic, duration: 32 days, gavage, S-D), the NOAEL came to 1800 mg/kg-day.

In the series on Mus musculus [5] (setting [14]), `Brc1cc(Br)c(Oc2cc(Br)c(Br)cc2Br)cc1Br` [2,2',4,4',5,5'-Hexabromodiphenyl ether] had an LOAEL of 0.9 mg/kg-day. The same molecule had a no-observed-adverse-effect level (NOAEL) with Mus musculus [5] (setting [14]) of 0.45 mg/kg-day. In addition, the LOEL in the series on Mus musculus [6] (P0: Morris water maze (latency, last trial) + P0: Morris water maze (latency, middle trial) + P0: Morris water maze (latency, reversal trial…) is 0.9 mg/kg-day; in the series with Mus musculus [6] (P0: Morris water maze (latency, middle trial)) it was 9 mg/kg-day.

Regarding `ClC=C(Cl)Cl` [Trichloroethylene], the LOAEL in the series on Mus musculus [7] was determined as 7 mg/kg-day; in the series on Mus musculus [9] (chronic, duration: 1 years, M/F), 0.37 mg/kg-day; with Mus musculus [9] (chronic, duration: 30 weeks, F), 0.35 mg/kg-day; with Mus musculus [9] (developmental, duration: 364 days, M/F), 0.37 mg/kg-day; with Mus musculus [5] (chronic, duration: 30 weeks, drinking water, F, Decreased thymus weight in female B6C3F1 mice), 0.35 mg/kg-day; in the series with Mus musculus [5] (developmental, drinking water, M/F, reduced plaque-forming cell (pfc) response, increased delayed-type hypersensitivity in b6c3f1 mice), 0.37 mg/kg-day. The molecule also gave a no observed adverse effect level (NOAEL) with Mus musculus [7] of 0.7 mg/kg-day. The NOEL in the series with Rattus norvegicus [8] (subchronic, duration: 13 weeks, M/F, Fischer 344, Histopathology: Lung-Pulmonary vasculitis Kidney-Cytomegaly/Karyomegaly, Renal tubular epithelial cell in the inner cortex) stood at 1000 mg/kg-day.

As to `Cc1cc(C(C#N)c2ccc(Cl)cc2)c(Cl)cc1NC(=O)c1cc(I)cc(I)c1O` (stereo not given) [Closantel], the NOEL in the series with Rattus norvegicus [10] (chronic, duration: 2 years, diet, M/F, Wistar, Increased incidences of sperm granulomas in the epididymes of male rats) is 2.5 mg/kg-day; with Rattus norvegicus [10] (dietary / carcinogenicity, duration: 2 years, feed, M/F, Wistar, Increased incidences of sperm granulomas in the epididymes of male rats), 2.5 mg/kg-day.

On to `CC(Cl)C(Cl)Cl` (stereo not given) [1,1,2-Trichloropropane], for which the NOAEL with Rattus norvegicus [2] (subchronic, duration: 90 days, drinking water, Sprague-Dawley, Hepatic, Other) turned out to be 14 mg/kg-day. In the series with Rattus norvegicus [11] (setting [15]), the LOAEL came out at 150 mg/kg-day and the NOEL was 15 mg/kg-day.

The molecule `Oc1c(Cl)cc(Cl)c2cccnc12.Oc1c(Cl)ccc2cccnc12.Oc1ccc(Cl)c2cccnc12` [Halquinols] yielded an NOAEL with Rattus norvegicus [10] (chronic, duration: 1 years, Histopathological changes in the kidney) of 15 mg/kg-day.

In the case of `CN[C@@H]1[C@H](O[C@H]2[C@H](O[C@H]3[C@H](O)[C@@H](O)[C@H](N=C(N)N)[C@@H](O)[C@@H]3N=C(N)N)O[C@@H](C)[C@]2(O)C=O)O[C@@H](CO)[C@H](O)[C@H]1O` [Streptomycin A], in the series with Rattus norvegicus [10] (setting [16]), the LOEL was 10 mg/kg-day and the NOEL is 5 mg/kg-day.

Regarding `Clc1cc2oc3cc(Cl)c(Cl)c(Cl)c3c2cc1Cl` [1,2,3,7,8-Pentachlorodibenzofuran], in the series on Rattus norvegicus [1], the lowest-observed-adverse-effect level (LOAEL) came to 0.0016 mg/kg-day and the NOAEL was determined as 0.00016 mg/kg-day.

`Cc1ccc(N)c(C)c1` [2,4-Dimethylaniline] yielded an LOAEL in the series on Rattus norvegicus [2] (chronic, duration: 6 months, diet, M, Osborne-Mendel) of 18 mg/kg-day.

`COc1cc2c(c3oc(=O)c4c(c13)CCC4=O)[C@]1(O)C=CO[C@@H]1O2` [Aflatoxin M1]: in the series with Rattus norvegicus [10] (chronic, duration: 2 years, diet, M, Fischer 344, Carcinogenicity), the NOEL was found to be 0.1 mg.

As for `[Sr]` [Strontium], the no-observed-adverse-effect level (NOAEL) is 190 mg/kg-day with Rattus norvegicus [12]; 140 mg/kg-day in the series with Rattus norvegicus [13] (short-term, duration: 20 days, oral, diet, F, musculoskeletal); 190 mg/kg-day with Rattus norvegicus [11] (setting [17]). For the same molecule, the lowest-observed-adverse-effect level (LOAEL) in the series with Rattus norvegicus [11] (setting [17]) was 380 mg/kg-day.

On to `ClC(Cl)(Cl)Cl` [Carbon tetrachloride], for which the NOAEL in the series on Rattus norvegicus [1] was 16 mg/kg-day; in the series on Rattus norvegicus [8] (setting [18]), less than 20 mg/kg-day; in the series on Rattus norvegicus [13] (chronic, duration: 104 weeks, inhalation, whole body, M/F, Fischer 344, hepatic), 31.5 mg/m3; with Rattus norvegicus [13] (chronic, duration: 205 days, inhalation, M/F, Wistar, hepatic), 31.5 mg/m3; in the series on Rattus norvegicus [13] (subchronic, duration: 12 weeks, oral, gavage, M, Sprague-Dawley, hepatic) it was 1 mg/kg-day. Further, the NOEL in the series on Rattus norvegicus [8] (setting [18]) is less than 20 mg/kg-day. Further, the LOAEL in the series with Rattus norvegicus [13] (short-term, duration: 10 days, oral, gavage, M, Fischer 344, hepatic) was found to be 5 mg/kg-day.

In turn, `Cc1ccccc1O` [o-Cresol] showed an NOAEL in the series on Neovison sp. of 219 mg/kg-day. In the series with Rattus norvegicus [11] (setting [19]), the LOAEL was determined as 150 mg/kg-day and the no observed adverse effect level (NOAEL) stood at 50 mg/kg-day.
